According to paper PMC9403976, “Elucidating the path to Plasmodium prolyl-tRNA synthetase inhibitors that overcome halofuginone resistance” (Nature Communications, 2022):
Several values for one entry are separate records, joined by “and”; a condition that tells them apart may be missing. Identical values can stand only once. Like-named read-outs stand apart in the source and are kept apart here.

What was measured:
P. falciparum Dd2-2D4 = assay: P. falciparum asexual blood stage (ABS) growth assay, SYBR Green, 72 h, wild-type parasites; assay type: cell-based, Plasmodium falciparum; details: Plasmodium falciparum, DD2; SI Fig 16b; values on -log scale; read-out: ABS - Dd2-2D4 (converted)
PfcProRS = molecular target: T1, PfcProRS (Plasmodium falciparum, UniProt Q8I5R7); assay type: binding; details: for Normalized response, dose-response replicates (SI Fig 14): replicates 1-3; for dose-response signal (normalized), SI Fig 8: single replicates
T1 construct: made in house; host or cells: E. coli SoluBL-21
T1 sequence (Q8I5R7 249-746): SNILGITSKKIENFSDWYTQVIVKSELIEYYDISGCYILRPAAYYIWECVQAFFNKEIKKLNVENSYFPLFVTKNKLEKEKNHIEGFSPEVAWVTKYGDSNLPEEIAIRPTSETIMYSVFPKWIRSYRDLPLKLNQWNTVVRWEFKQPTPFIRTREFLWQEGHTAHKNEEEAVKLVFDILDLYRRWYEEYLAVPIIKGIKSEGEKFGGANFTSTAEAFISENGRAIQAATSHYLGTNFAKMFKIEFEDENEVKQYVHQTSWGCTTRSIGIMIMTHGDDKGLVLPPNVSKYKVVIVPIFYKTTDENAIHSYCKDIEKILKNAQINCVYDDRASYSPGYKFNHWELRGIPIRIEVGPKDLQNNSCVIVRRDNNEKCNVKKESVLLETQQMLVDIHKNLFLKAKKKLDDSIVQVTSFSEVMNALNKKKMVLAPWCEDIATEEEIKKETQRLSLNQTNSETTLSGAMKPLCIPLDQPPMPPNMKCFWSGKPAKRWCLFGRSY

HsProRS = HsProRS (Homo sapiens, UniProt P07814); assay: TR-FRET ligand displacement assay with tracer MAT379 (CoraFluor-1-Halo and anti-His6 antibody formats); assay type: binding; design: made in house; host or cells: E. coli SoluBL-21; details: for TR-FRET dose-response, normalized signal (SI Fig 11): individual replicates
Chain of HsProRS (P07814 996-1512): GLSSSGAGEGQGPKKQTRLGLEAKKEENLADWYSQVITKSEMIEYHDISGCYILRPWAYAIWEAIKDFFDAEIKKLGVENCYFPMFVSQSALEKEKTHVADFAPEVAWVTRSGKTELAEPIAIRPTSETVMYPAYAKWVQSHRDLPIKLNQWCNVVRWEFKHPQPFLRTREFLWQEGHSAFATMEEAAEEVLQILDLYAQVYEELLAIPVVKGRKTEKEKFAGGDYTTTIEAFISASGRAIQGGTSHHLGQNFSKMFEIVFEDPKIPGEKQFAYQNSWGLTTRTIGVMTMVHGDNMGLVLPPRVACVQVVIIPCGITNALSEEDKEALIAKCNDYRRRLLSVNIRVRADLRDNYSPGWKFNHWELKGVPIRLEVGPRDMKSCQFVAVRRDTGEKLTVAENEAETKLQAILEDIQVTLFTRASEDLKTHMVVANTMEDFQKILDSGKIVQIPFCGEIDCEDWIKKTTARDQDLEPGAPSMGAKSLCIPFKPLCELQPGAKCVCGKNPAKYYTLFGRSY

[1] = HsProRS (KD [nM]) mean, no added proline/ATP (-)
[2] = HsProRS - best Kd, SI Fig 16a, values on -log scale

Structure (SMILES): CC(C)(C)OC(=O)NCCCCCC(=O)NCC1CCN(C(=O)Nc2nccnc2C(=O)NC2Cc3ccccc3C2)CC1 [compound 43]
- EC50 (P. falciparum Dd2-2D4): 3.33 µM
- Normalized response, dose-response replicates (SI Fig 14) (PfcProRS; Log[inhibitor] (M) -5.000): 3.94E-01 and 2.57E-01 and 2.74E-01
- Normalized response, dose-response replicates (SI Fig 14) (PfcProRS; Log[inhibitor] (M) -5.301): 4.70E-01 and 4.27E-01 and 4.95E-01
- Normalized response, dose-response replicates (SI Fig 14) (PfcProRS; Log[inhibitor] (M) -5.601): 6.21E-01 and 6.23E-01 and 5.88E-01
- Normalized response, dose-response replicates (SI Fig 14) (PfcProRS; Log[inhibitor] (M) -5.904): 7.25E-01 and 7.36E-01 and 7.34E-01
- Normalized response, dose-response replicates (SI Fig 14) (PfcProRS; Log[inhibitor] (M) -6.208): 8.39E-01 and 7.98E-01 and 7.48E-01
- Normalized response, dose-response replicates (SI Fig 14) (PfcProRS; Log[inhibitor] (M) -6.509): 9.01E-01 and 9.26E-01 and 9.21E-01
- Normalized response, dose-response replicates (SI Fig 14) (PfcProRS; Log[inhibitor] (M) -6.796): 8.44E-01 and 9.34E-01 and 8.61E-01
- Normalized response, dose-response replicates (SI Fig 14) (PfcProRS; Log[inhibitor] (M) -7.108): 8.07E-01 and 9.41E-01 and 7.86E-01
- Normalized response, dose-response replicates (SI Fig 14) (PfcProRS; Log[inhibitor] (M) -7.409): 8.06E-01 and 8.12E-01 and 9.38E-01
- Normalized response, dose-response replicates (SI Fig 14) (PfcProRS; Log[inhibitor] (M) -7.710): 9.31E-01 and 8.84E-01 and 7.70E-01
- Normalized response, dose-response replicates (SI Fig 14) (PfcProRS; Log[inhibitor] (M) -8.000): 9.59E-01 and 9.87E-01 and 9.57E-01
- Normalized response, dose-response replicates (SI Fig 14) (PfcProRS; Log[inhibitor] (M) -8.301): 1.01E+00 and 8.79E-01 and 9.74E-01
- Normalized response, dose-response replicates (SI Fig 14) (PfcProRS; Log[inhibitor] (M) -8.602): 9.04E-01 and 9.28E-01 and 9.93E-01
- Normalized response, dose-response replicates (SI Fig 14) (PfcProRS; Log[inhibitor] (M) -9.000): 8.86E-01 and 8.79E-01 and 9.68E-01
- Normalized response, dose-response replicates (SI Fig 14) (PfcProRS; Log[inhibitor] (M) -9.301): 8.43E-01 and 8.23E-01 and 8.26E-01
- PfcProRS -- best Kd (PfcProRS; SI Fig 16a, values on -log scale): 6.495
- Kd (HsProRS; HsProRS (KD [nM]) + 100 μM proline mean, + 100 μM proline): 2280 nM
- Kd (HsProRS; [1]): 611 nM

Structure (SMILES): O=C(NC1Cc2ccccc2C1)c1nccnc1NC(=O)C1(O)CCCCC1 [compound 15]
- EC50 (P. falciparum Dd2-2D4): 1.5 µM
- Kd (HsProRS; [1]): 2700 nM
- Kd (HsProRS; [2]): 21.8 nM

Structure (SMILES): CC(C)N(C(=O)Nc1nccnc1C(=O)NC1Cc2ccccc2C1)C(C)C [compound 5]
- dose-response signal (normalized), SI Fig 8 (PfcProRS; Log[inhibitor] (M) -5.000): 1.47E-01 and 1.35E-01 and 1.83E-01
- dose-response signal (normalized), SI Fig 8 (PfcProRS; Log[inhibitor] (M) -5.301): 3.88E-01 and 4.48E-01 and 4.36E-01
- dose-response signal (normalized), SI Fig 8 (PfcProRS; Log[inhibitor] (M) -5.601): 7.44E-01 and 8.07E-01 and 7.69E-01
- dose-response signal (normalized), SI Fig 8 (PfcProRS; Log[inhibitor] (M) -5.904): 8.45E-01 and 8.57E-01 and 9.58E-01
- dose-response signal (normalized), SI Fig 8 (PfcProRS; Log[inhibitor] (M) -6.208): 8.74E-01 and 8.91E-01 and 9.30E-01
- dose-response signal (normalized), SI Fig 8 (PfcProRS; Log[inhibitor] (M) -6.509): 9.93E-01 and 1.13E+00 and 1.03E+00
- dose-response signal (normalized), SI Fig 8 (PfcProRS; Log[inhibitor] (M) -6.796): 1.01E+00 and 9.89E-01 and 1.13E+00
- dose-response signal (normalized), SI Fig 8 (PfcProRS; Log[inhibitor] (M) -7.108): 9.82E-01 and 9.95E-01 and 1.21E+00
- dose-response signal (normalized), SI Fig 8 (PfcProRS; Log[inhibitor] (M) -7.409): 1.20E+00 and 1.06E+00 and 1.08E+00
- dose-response signal (normalized), SI Fig 8 (PfcProRS; Log[inhibitor] (M) -7.710): 1.11E+00 (2×) and 1.12E+00
- dose-response signal (normalized), SI Fig 8 (PfcProRS; Log[inhibitor] (M) -8.000): 1.01E+00 and 1.06E+00 and 1.07E+00
- dose-response signal (normalized), SI Fig 8 (PfcProRS; Log[inhibitor] (M) -8.301): 9.64E-01 and 1.10E+00 and 1.14E+00
- dose-response signal (normalized), SI Fig 8 (PfcProRS; Log[inhibitor] (M) -8.602): 8.54E-01 and 1.04E+00 and 1.07E+00
- dose-response signal (normalized), SI Fig 8 (PfcProRS; Log[inhibitor] (M) -9.000): 9.25E-01 and 9.26E-01 and 1.03E+00
- dose-response signal (normalized), SI Fig 8 (PfcProRS; Log[inhibitor] (M) -9.301): 8.80E-01 and 9.99E-01 and 1.04E+00
- Kd (HsProRS; [2]): 1020 nM
- normalized TR-FRET ligand displacement signal, dose-response replicates (SI Fig 6) (HsProRS; Log[inhibitor] (M) -5.000): 8.71E-01 and 7.50E-01 and 6.79E-01
- TR-FRET dose-response, normalized signal (SI Fig 11) (HsProRS; Log[inhibitor] (M) -5.000): 6.19E-01 and 6.48E-01 and 6.40E-01
- normalized TR-FRET ligand displacement signal, dose-response replicates (SI Fig 6) (HsProRS; Log[inhibitor] (M) -5.301): 9.58E-01 and 7.89E-01 and 8.27E-01
- TR-FRET dose-response, normalized signal (SI Fig 11) (HsProRS; Log[inhibitor] (M) -5.301): 7.58E-01 and 7.59E-01 and 7.76E-01
- normalized TR-FRET ligand displacement signal, dose-response replicates (SI Fig 6) (HsProRS; Log[inhibitor] (M) -5.601): 8.37E-01 and 1.05E+00 and 1.03E+00
- TR-FRET dose-response, normalized signal (SI Fig 11) (HsProRS; Log[inhibitor] (M) -5.601): 8.37E-01 and 8.60E-01 and 8.59E-01
- normalized TR-FRET ligand displacement signal, dose-response replicates (SI Fig 6) (HsProRS; Log[inhibitor] (M) -5.904): 1.09E+00 and 1.03E+00 and 9.64E-01
- TR-FRET dose-response, normalized signal (SI Fig 11) (HsProRS; Log[inhibitor] (M) -5.904): 9.61E-01 and 8.97E-01 and 9.02E-01
- normalized TR-FRET ligand displacement signal, dose-response replicates (SI Fig 6) (HsProRS; Log[inhibitor] (M) -6.208): 9.53E-01 and 8.96E-01 and 9.38E-01
- TR-FRET dose-response, normalized signal (SI Fig 11) (HsProRS; Log[inhibitor] (M) -6.208): 9.36E-01 and 9.49E-01 and 9.17E-01
- normalized TR-FRET ligand displacement signal, dose-response replicates (SI Fig 6) (HsProRS; Log[inhibitor] (M) -6.509): 9.42E-01 and 9.99E-01 and 1.01E+00
- TR-FRET dose-response, normalized signal (SI Fig 11) (HsProRS; Log[inhibitor] (M) -6.509): 8.96E-01 and 8.83E-01 and 9.32E-01
- normalized TR-FRET ligand displacement signal, dose-response replicates (SI Fig 6) (HsProRS; Log[inhibitor] (M) -6.796): 1.20E+00 (2×) and 1.11E+00
- TR-FRET dose-response, normalized signal (SI Fig 11) (HsProRS; Log[inhibitor] (M) -6.796): 9.19E-01 and 9.16E-01 and 9.35E-01
- normalized TR-FRET ligand displacement signal, dose-response replicates (SI Fig 6) (HsProRS; Log[inhibitor] (M) -7.108): 9.92E-01 and 1.02E+00 and 1.18E+00
- TR-FRET dose-response, normalized signal (SI Fig 11) (HsProRS; Log[inhibitor] (M) -7.108): 9.11E-01 and 9.16E-01 and 8.81E-01
- normalized TR-FRET ligand displacement signal, dose-response replicates (SI Fig 6) (HsProRS; Log[inhibitor] (M) -7.409): 8.86E-01 and 9.18E-01 and 1.10E+00
- TR-FRET dose-response, normalized signal (SI Fig 11) (HsProRS; Log[inhibitor] (M) -7.409): 9.21E-01 and 9.28E-01 and 9.54E-01
- normalized TR-FRET ligand displacement signal, dose-response replicates (SI Fig 6) (HsProRS; Log[inhibitor] (M) -7.710): 1.00E+00 and 9.56E-01 and 9.99E-01
- TR-FRET dose-response, normalized signal (SI Fig 11) (HsProRS; Log[inhibitor] (M) -7.710): 9.54E-01 and 9.03E-01 and 9.47E-01
- normalized TR-FRET ligand displacement signal, dose-response replicates (SI Fig 6) (HsProRS; Log[inhibitor] (M) -8.000): 1.08E+00 and 9.18E-01 and 9.67E-01
- TR-FRET dose-response, normalized signal (SI Fig 11) (HsProRS; Log[inhibitor] (M) -8.000): 9.82E-01 and 9.20E-01 and 9.02E-01
- normalized TR-FRET ligand displacement signal, dose-response replicates (SI Fig 6) (HsProRS; Log[inhibitor] (M) -8.301): 9.61E-01 and 8.84E-01 and 1.00E+00
- TR-FRET dose-response, normalized signal (SI Fig 11) (HsProRS; Log[inhibitor] (M) -8.301): 9.50E-01 and 9.79E-01 and 9.60E-01
- normalized TR-FRET ligand displacement signal, dose-response replicates (SI Fig 6) (HsProRS; Log[inhibitor] (M) -8.602): 9.71E-01 and 1.01E+00 and 8.97E-01
- TR-FRET dose-response, normalized signal (SI Fig 11) (HsProRS; Log[inhibitor] (M) -8.602): 9.46E-01 and 9.17E-01 and 9.64E-01
- normalized TR-FRET ligand displacement signal, dose-response replicates (SI Fig 6) (HsProRS; Log[inhibitor] (M) -9.000): 9.83E-01 and 9.95E-01 and 9.23E-01
- TR-FRET dose-response, normalized signal (SI Fig 11) (HsProRS; Log[inhibitor] (M) -9.000): 9.65E-01 and 9.90E-01 and 9.18E-01
- normalized TR-FRET ligand displacement signal, dose-response replicates (SI Fig 6) (HsProRS; Log[inhibitor] (M) -9.301): 9.67E-01 and 9.33E-01 and 1.01E+00
- TR-FRET dose-response, normalized signal (SI Fig 11) (HsProRS; Log[inhibitor] (M) -9.301): 9.51E-01 and 9.69E-01 and 8.77E-01
